In patent publication US20170157145A1, “SUBSTANCE INDUCING EXPRESSION OF PARKIN POLYPEPTIDE AND USE THEREOF” (Samsung Electronics Co., Ltd., priority 2015, published 2017):

How the values were obtained:
Parkin protein = test: Immunoblotting of Parkin protein in HEK 293T cells; format: cell-based, human; details: Parkin protein relative to DMSO, 10 μM, about 48 hours
Description: Among the 44 compounds selected in the initial screen described in 2, 22 compounds were examined to determine whether they increased expression of Parkin protein when they are applied to an HEK 293T cell line.
10 μM of each compound was added to the HEK 293T cells, and cultured at 37° C. and 5% CO2 for about 48 hours. The cultured cells were collected, and proteins were obtained from the cells. Anti-Parkin protein antibody (Cell signaling) and anti-beta actin antibody (Sigma-Aldrich) were used to perform immunoblotting, and an image of the immunoblotting is shown in FIG. 1.

HEK 293T cell line = test: Cell protecting effect against H2O2 oxidative stress cytotoxicity (Alamar blue assay); format: cell-based, human; details: cytotoxicity inhibition ratio relative to DMSO; 10 μM 48 hours, then H2O2 500 μM 90 minutes
Description: A cytotoxicity-induced model by application of oxidative stress to the HEK 293T cell line was used. 10 μM of each of the 22 compounds was applied to the HEK cell line and cultured at 37° C. and 5% CO2 for about 48 hours. H2O2 (Sigma-Aldrich, final concentration of 500 μM) was applied to the cultured cells and cultured at 37° C. and 5% CO2 for about 90 minutes. Thereafter, cells were collected and cytotoxicity was examined by Alamar blue® assay (Thermo Fisher Scientific).
The level of H2O2-induced cytotoxicity in cells treated with each of the 22 compounds was compared with cells treated with DMSO alone. 16 compounds having a significant cytotoxicity inhibitory effect (P<0.05) against oxidative stress were selected.
In Table 1, the values of luciferase activity and immunoblotting were expressed relative to DMSO, and the cell protecting effect (%) represents a cytotoxicity inhibition ratio, relative to DMSO. […] Further, “n” represents the number of experiments that were repeated, and “s.e.” represents standard error.

human Parkin promoter = test: Parkin promoter luciferase screening in HEK-Parkin-Luc cell line; format: cell-based; details: relative to DMSO, 10 μM, about 24 hours
Description: To identify compounds capable of inducing expression of Parkin protein at the promoter level, a pGL3-Parkin-Luc DNA construct was used (Cell Death and Differentiation, vol. 18, No. 5, p. 769-782, 2011.05 ). This construct was used to quantify the activity of human Parkin promoter by luminescence intensity due to a luciferase expression level. As a cell line, a human embryonic kidney cell line HEK-293T (ATCC), which maintains Parkin protein activity at a low level, was prepared.
Thereafter, 5 μg/ml of puromycin (Calbiochem) was added to the HEK-293T cells, and cultured at 37° C. and 5 % CO2 for about 21 days. Every 3 days, the medium was replaced by a fresh medium containing 5 μg/ml of puromycin. Stable cell lines were established from single colonies of the cultured cell line. A cell line showing stable luciferase activity was obtained, and designated as HEK-Parkin-Luc, which was used to screen for compounds capable of activating the Parkin promoter. […]
Then, the cultured cells were washed with PBS, and a luminescent substrate (Promega) was added. Luminescence intensity of the cells was measured using a microplate luminometer (Berthold Technologies), and luciferase activity relative to a negative control of 0.1% DMSO was calculated.

[1] = tested on: tyrosine hydroxylase (TH)-positive dopaminergic neurons in the substantia nigra pars compacta; test: 6-OHDA-induced PD mouse model, stereological count of TH-positive dopaminergic neurons; format: in vivo; details: hydrocortisone pretreatment 0.4 mg/kg i.p. daily; 6-OHDA 8 ug intrastriatal on day 7
Description: Hydrocortisone was given to mice intraperitoneally. Hydrocortisone administration began on day 1 and continued for 11 days followed by stereological assessment of dopamine neuron counts. 6-OHDA intrastriatal injection was done on day 7. For stereotaxic injection of 6-hydroxy dopamine (6-OHDA, 8 ug), eight-week-old C57/BL6 mice treated either with hydrocortisone for 7 days or DMSO as a control were anesthetized with pentobarbital (60 mg/kg). An injection cannula (26.5 gauge) was applied stereotaxically into the striatum (anteroposterior, 0.5 mm from bregma; mediolateral, 2.0 mm; dorsoventral, 3.0 mm) unilaterally (applied into the right hemisphere). […] The head skin was closed by suturing and wound healing and recovery were monitored following surgery. […] Protein levels were quantified using the BCA kit (Pierce) with BSA standards and analyzed by immunoblot. […]
After scheduled treatments of hydrocortisone (0.4 mg/kg body weight, i.p. administration daily) in 6-OHDA intoxication models and control groups, animals were anesthetized with pentobarbital (50 mg/kg, intraperitoneal injection) and perfused with PBS followed by 4% paraformaldehyde (wt/vol in PBS). […] Total numbers of TH-positive neurons in substantia nigra pars compacta were counted using the Optical Fractionator probe of Stereo Investigator software (MicroBrightfield, Williston, Vt.). […]

AIMP2 = AIMP2 level in mouse striatum and ventral midbrain after i.p. hydrocortisone (western blot); format: in vivo; details: hydrocortisone 7 days vs DMSO
Description: (§1) The head skin was closed by suturing and wound healing and recovery were monitored following surgery. […] The brain was removed and processed for immunohistochemistry. […] After homogenization, samples were rotated at 4° C. for 30 min for complete lysis, then the homogenate was centrifuged at 52,000 rpm for 20 min, and the resulting fractions were collected. Protein levels were quantified using the BCA kit (Pierce) with BSA standards and analyzed by immunoblot.
The densitometric analyses of the bands were performed using ImageJ (NIH, http://rsb.info.nih.gov/ij/).

parkin = test: Parkin expression in mouse brain subregions after i.p. hydrocortisone (immunoblot); format: in vivo; details: striatum, ventral midbrain and cerebellum; i.p. 7 days; vs vehicle treated control mice; normalized to β-actin
Description: as §1, with “immunoblot. […] The densitometric analyses of the bands were performed using ImageJ (NIH, http://rsb.info.nih.gov/ij/).” for “immunoblot.”

**Q.** What does the source list for `O=C(c1ccccc1)c1ccc2n1CCC2C(=O)O` (racemic) [Ketorolac tromethamine, (±)-5-benzoyl-2,3-dihydro-1H-pyrrolizine-1-carboxylic acid]?
**A.** Immunoblotting (Parkin protein): 1.95; Cell protecting effect (%) (HEK 293T cell line): 21.49%; Luciferase activity (human Parkin promoter): 1.31

**Q.** For `C[C@]12CCC(=O)C=C1CC[C@@H]1[C@@H]2[C@@H](O)C[C@@]2(C)[C@H]1CC[C@]2(O)C(=O)CO` [Hydrocortisone, (11β)-11,17,21-trihydroxypregn-4-ene-3,20-dione], which “dopaminergic neuronal survival against 6-OHDA intoxication” value [1] is on record?
**A.** markedly enhanced dopaminergic neuronal survival

**Q.** And the “downregulation of parkin's toxic substrate AIMP2” value (AIMP2)?
**A.** 20%

**Q.** What about the Immunoblotting (Parkin protein) of the same molecule?
**A.** 1.11

**Q.** And the “Cell protecting effect (%)” value (HEK 293T cell line)?
**A.** 35.53%

**Q.** And the Luciferase activity (human Parkin promoter)?
**A.** 1.52

**Q.** What about the “increase of parkin expression” value (parkin) of the same molecule?
**A.** approximately two fold
